Source: PMC3984256, “A PCNA-Derived Cell Permeable Peptide Selectively Inhibits Neuroblastoma Cell Growth” (PLoS ONE, 2014)
Where a SMILES comes first, the peptide text is derived from it. [ ]: non-standard residue; d: D form.

Assays:
PCNA and p21 interaction = PCNA and p21 interaction in vitro; assay type: binding; conditions: data not shown
panel of NB cell lines = assay type: cell-based, human; conditions: 72 h
Description: (§1) The human NB cell lines, SK-N-DZ, SK-N-BE(2)c, SK-N-AS, SK-N-SH, and SK-N-FI were obtained from the American Type Culture Collection (Rockville, MD). Cells were maintained in DMEM with 10% fetal bovine serum (FBS), 100 units/ml penicillin, and 100 µg/ml streptomycin in the presence of 5% CO2 at 37°C. Human PBMCs from a healthy donor were purchased from Sanguine BioSciences (Valencia, CA) and grown in RPMI1640 with10% FBS, 100 units/ml penicillin, 100 µg/ml streptomycin, and 10 ng/ml IL-2 in the presence of 5% CO2 at 37°C. Human embryonic progenitor cell line 7SM0032 was acquired from Millipore (Billerica, MA) and grown in the hEPM-1 Media Kit purchased from the same company.
(§2) To measure cell growth, cells were seeded at 3×10^4/ml. After being allowed to attach overnight, cells were treated with various concentrations of the peptides for 72 h. Cell growth was measured by the CellTitor-Glo assay (Promega, Madison, WI) according to manufacturer's instruction. To measure apoptosis, cells were seeded at 1×10^5/ml onto a chamber slide. Once attached, cells were treated with the peptides for 48 h. Cells were fixed and analyzed by a TUNEL assay using the TMR red in situ cell death detection kit (Roche Diagnostics, Indianapolis, IN).

[1] = tested on: human neural crest stem cells (7SM0032); assay type: cell-based; conditions: 72 h
Description: as §1, §2

[2] = tested on: human peripheral blood mononuclear cells (PBMC); assay type: cell-based; conditions: 72 h
Description: as §1, §2

synchronized cells = test: Cell cycle analysis of synchronized cells within 6 h (data not shown); assay type: cell-based; conditions: 6 h after mimosine release
Description: (§3) Cells were seeded at 1×10^5/ml. Once attached, cells were treated with or without R9-caPep for 48 hours. Cells were fixed in 60% ethanol and stained with propidium iodide (PI). The cellular PI fluorescence intensity was determined by flow cytometry. The flow cytometry data were analyzed by the FlowJo program to model various cell populations.
Cells were seeded at 1×10^5/ml onto a chamber slide and were allowed to attach overnight. To analyze the interaction of PCNA with FEN1, LIGI, or Pol ä, we first synchronize cells at the G1/S boundary. The synchronization is achieved by starving cells in medium containing 0.25% FBS for 24 h. Cells were further cultured in the complete medium containing 400 µM of mimosine for 24 h. To release cells into S phase, cells were washed and incubated in mimosine-free medium containing 30 µM R9-caPep or R9-srbPep for 6 h. We pre-determined that the majority of cells were in the S-phase 6 h after mimosine was removed (data not shown). Cells were fixed in ice-cold methanol:acetone (50%:50%) for 10 min or in 4% paraformaldehyde for 20 min at room temperature. Cells were incubated with a goat polyclonal anti-PCNA antibody (Santa Cruz) and a mouse monoclonal anti-FEN1 antibody (Santa Cruz), a mouse anti-POLD3 antibody (Sigma, St. Louis, MO), or a mouse anti-LIGI antibody (Abcam, Cambridge, MA) for 1 h at room temperature. […]

[3] = tested on: intracellular LIGI or FEN1 level; test: Western blot of intracellular LIGI or FEN1 level (data not shown); assay type: cell-based
[4] = tested on: non-malignant 7SM0032 cells; test: Cell cycle analysis by PI flow cytometry, 7SM0032; assay type: cell-based, human; conditions: 7SM0032, same treatment (40 µM, 48 h), vs NB cells
Description: as §3

[5] = tested on: non-malignant 7SM0032 cells; test: TUNEL apoptosis assay, 7SM0032; assay type: cell-based, human; conditions: 7SM0032, same treatment (40 µM, 48 h), vs NB cells
Description: as §2

ãH2A.X level = test: γH2A.X western blot after γ-irradiation; assay type: cell-based; conditions: 30 µM peptide, 2 h pretreatment, 5 Gy
Description: To study DNA damage and repair, attached cells were pretreated with the peptides for 2 h and were then ã-irradiated (5 Gy). After irradiation, cells were cultured in the presence of the peptides for the indicated time. For analyzing ãH2A.X foci formation, cells were fixed in a solution of methanol and acetone (70%:30% v/v) for 15 min at −20°C. The slides were air-dried for storage and rehydrated in PBS prior to immunostaining. Cells were stained by a mouse monoclonal antibody specific to ãH2A.X (Millipore, Billerica, MA) followed by an Alexa Fluor 488 conjugated anti-mouse IgG antibody. For analyzing Rad51 foci formation, cells were fixed in PBS buffered 4% paraformaldehyde at room temperature for 15 min. After being washed twice by PBS, cells were permeabilized in PBS containing 0.5% triton for 15 min on ice. The fixed and permeabilized cells were stained with a rabbit polyclonal antibody raised against the human Rad51 (Santa Cruz) followed by an Alexa Fluor 488 conjugated anti-rabbit IgG antibody. Stained cells were visualized and imaged by a confocal microscope.
Cell extracts were prepared by dissolving cell pellets directly into the Laemmli sample buffer and resolved in a 4–12% SDS polyacrylamide gel. Resolved proteins were blotted onto a nitrocellulose membrane. The membrane was blocked with 5% nonfat dry milk and incubated with an antibody specific to ãH2A.X (Millipore), total H2A.X (Cell Signaling Technology, Danvers, MA), MYCN (Cell Signaling Technology), or actin (Sigma) in the blocking buffer. After incubation with peroxidase-conjugated secondary antibodies, the protein of interest was detected using an ECL kit purchased from GE Healthcare.

[6] = tested on: HR-mediated DSB repair, U2OS-derived DR-GFP cells; test: DSB repair reporter assay, HR (DR-GFP); assay type: cell-based; conditions: 30 µM, GFP-positive cells 3 d after I-SceI transfection, normalized to R9-srbPep, triplicates
Description: The plasmid pCBASce expresses the rare cutting I-SceI meganuclease. The U2OS-derived cell lines, DR-GFP, EJ5-GFP, and SA-GFP contain a stably transfected reporter gene for DSB repair mediated by HR, end joining (EJ), and single-strand annealing (SSA), respectively. These cell lines were cultured in DMEM medium with 10% FBS at 37°C in the presence of 5% CO2.
DR-GFP, EJ5-GFP, and SA-GFP cell lines were seeded at 2.5×10^4 cells/cm^2 in a 12-well plate. Once attached overnight, cells were transfected with 1.2 µg of the pCBASce I-SceI expression plasmid mixed with 3.6 µl of Lipofectamine 2000 (Invitrogen) in 200 µl of Optimem media (Invitrogen). After incubation for 3 h, the media containing transfection complexes was aspirated and replaced with fresh media containing 30 µM of the peptides. The HR, EJ, and SSA-mediated DSB repair, indicated by the restoration of a functional GFP gene in the respective cell lines, were quantified by measuring the relative abundance of GFP-positive cells by flow cytometry 3 d after transfection.

IC50 (panel of NB cell lines): 10 to 32 µM
IC50 [1]: > 100 µM
SMILES: CC[C@H](C)[C@H](NC(=O)CNC(=O)[C@H](CC(C)C)NC(=O)[C@H](CS)NC(=O)[C@H](CS)NC(=O)[C@@H](CCCNC(=N)N)NC(=O)[C@@H](CCCNC(=N)N)NC(=O)[C@@H](CCCNC(=N)N)NC(=O)[C@@H](CCCNC(=N)N)NC(=O)[C@@H](CCCNC(=N)N)NC(=O)[C@@H](CCCNC(=N)N)NC(=O)[C@@H](CCCNC(=N)N)NC(=O)[C@@H](CCCNC(=N)N)NC(=O)[C@H](N)CCCNC(=N)N)C(=O)N1CCC[C@H]1C(=O)N[C@@H](CCC(=O)O)C(=O)N[C@@H](CCC(N)=O)C(=O)N[C@@H](CCC(=O)O)C(=O)N[C@@H](Cc1ccc(O)cc1)C(=O)O [R9-caPep] (H-[dR][dR][dR][dR][dR][dR][dR][dR][dR]CCLGIPEQEY-OH; N-terminus and C-terminus assumed)
effect on PCNA and p21 interaction (PCNA and p21 interaction): did not block PCNA and p21 interaction in vitro
sensitivity of MYCN-amplified vs. non-amplified NB cell lines (panel of NB cell lines; CellTiter-Glo): NB cell lines with MYCN amplification were uniformly more sensitive to R9-caPep than NB cell lines without MYCN amplification
IC50 [2]: 98 µM
cell cycle progress within 6 h (synchronized cells): neither peptide significantly affected cell cycle progress within 6 h
intracellular LIGI or FEN1 level [3]: didn't affect intracellular LIGI or FEN1 level
effect on cell cycle progression in non-malignant cells [4]: significantly less effect on cell cycle progression and cell survival
effect on cell survival in non-malignant cells [5]: significantly less effect on cell cycle progression and cell survival
ãH2A.X level within 30 min after irradiation (ãH2A.X level): increased within 30 min following ã-irradiation in cells treated with either peptide
ãH2A.X level 48 h after irradiation (ãH2A.X level; 48 h): remained elevated
HR-mediated DNA repair [6]: significantly inhibited HR-mediated DNA repair
